Columns and labels:
[1] = system: ferric chloride induced arterial thrombosis; experiment: FeCl3 induced carotid artery thrombosis in mice; type: in vivo; details: for time to occlusion (TTO) of carotid artery: 1d 4 hr after oral administration, control 9.5±0.4 min
Experimental: Male Swiss albino mice were anesthetized byurethane (1.25 g/kg, i.p.). The carotid artery was carefully dissected and a pulsed Doppler Probe (LDF 100C, BioPac, USA) was placed around it to record the blood flow velocity and patency of the blood vessels. The carotid artery thrombosis was induced by FeCl3 as follows: a square (1×0.5 mm) of Whatman Chromatography paper was immersed in 10% FeCl3 solution for 5 min and placed on the carotid artery as described earlier. (Kurz K D, et al., Thromb Res 1990; 60(4):269-80; Surin W R et al J Pharmacol Toxicol Methods. 2010; 61(3):287-91) Thrombosis was monitored as the reduction in carotid artery blood flow. The time at which the blood-flow velocity was decreased to zero was recorded as the time to occlusion (TTO) of the carotid artery.

human platelets [2] = experiment: U46619 (thromboxane receptor agonist) induced platelet aggregation; type: cell-based
human platelets [3] = experiment: ADP induced platelet aggregation; type: cell-based; details: up to 300 μM
human platelets [4] = experiment: Arachidonic acid induced platelet aggregation (COX pathway); type: cell-based
[5] = Tail bleeding time in mice
human platelets [6] = experiment: Ristocetin induced platelet aggregation; type: cell-based; details: up to 300 μM
human platelets [7] = experiment: Collagen related peptide (CRP-XL) induced platelet aggregation; type: cell-based; details: up to 300 μM
human plasma = experiment: Coagulability of blood by TT, PT and aPTT in human plasma
human platelets [8] = experiment: TRAP (thrombin mimetic SFLLRN) induced platelet aggregation; type: cell-based; details: up to 300 μM
[9] = system: collagen plus epinephrine induced pulmonary thromboembolism; experiment: Collagen-epinephrine induced pulmonary thromboembolism in mice; type: in vivo; details: for inhibition in vivo at 30 µM, 30 µmol/kg: Mus musculus, po, 1 h, read-out: Protection (%)
Experimental: To assess the antithrombotic efficacy of compounds, mice were grouped into vehicle, aspirin and compound treated groups, and each group included ten animals. Pulmonary thromboembolism was induced by injecting a mixture of collagen (150 μg/ml) and adrenaline (50 μg/ml) into the tail vein to achieve final doses of collagen (1.5 mg/kg) and adrenaline (0.5 mg/kg) to induce hind limb paralysis or death.^11, 12 Number of test animals killed or paralyzed were evaluated (death/paralysis were employed as endpoint to evaluate antithrombotic agents). The percent protection was calculated by taking the ratio of number of test animals killed or paralyzed to that of total tested animals. Results have been reported as percentage protection, which represents protection against collagen and epinephrine induced thromboembolism and expressed as;
Percent Protection=[1−(Ptest/Pcontrol)]×100
Where, Ptest is the number of animals paralyzed/dead in test compound-treated group, and Pcontrol is the total number of animals paralyzed/dead in vehicle treated group. The percent protection refers to the number of animals in compound treated group that were prevented from paralysis/death.

human platelets [10] = experiment: Collagen induced platelet aggregation in human platelets (in vitro); type: cell-based; details: Homo sapiens, Platelet, compound concentration 30 μM, n = 3

Compound: COC(=O)[C@H](c1ccccc1Cl)N1CCc2sccc2C1 [Clopidogrel, reference compound]
- time to occlusion (TTO) of carotid artery [1]: ≤ 23 ± 0.9 min

Compound: O=C([C@@H]1CCC(=O)N1Cc1ccccc1Br)N1CC2CC(CN(Cc3ccccc3)C2)C1 [Compound 1d, 5-(7-Benzyl-3,7-diaza-bicyclo[3.3.1]nonane-3-carbonyl)-1-(2-bromo-benzyl)-pyrrolidin-2-one]
- inhibition at 30 µM (human platelets [2]): 75.5 ± 6%
- effect against ADP induced platelet aggregation (human platelets [3]): did not exhibit any significant effect
- inhibition of arachidonic acid induced platelet aggregation (human platelets [4]; 30 μM): did not exhibit any inhibition
- attenuation of arachidonic acid induced platelet aggregation (human platelets [4]; 300 μM and 500 μM): ≤ 50%
- effect on bleeding tendency ([5]; 1 hr after oral dosing, compared against aspirin and clopidogrel): mild effect
- bleeding time ([5]; after 4 hrs (oral), method doses aspirin 170 μM/kg, Clopidogrel 70 μM/kg): 8.4 min
- effect against Ristocetin induced platelet aggregation (human platelets [6]): did not exhibit any significant effect
- effect against CRP-XL induced platelet aggregation (human platelets [7]): did not exhibit any significant effect
- prolongation of time to occlusion vs control ([1]; 4 hr after oral administration): 2.2 fold
- time to occlusion (TTO) of carotid artery [1]: 19.2 ± 0.9 min
- coagulability of blood as assessed by TT, PT and aPTT (human plasma): did not alter the coagulability of blood
- effect against TRAP induced platelet aggregation (human platelets [8]): did not exhibit any significant effect
- inhibition in vivo at 30 µM, 30 µmol/kg [9]: 40%
- protection in collagen-epinephrine induced pulmonary thromboembolism ([9]; mice, after 4 hours (p.o.), 30 μM/kg): ≤ 60%

Compound: O=C(N[C@@H](Cc1ccccc1)C(=O)N1CC2CC(CN(Cc3ccccc3)C2)C1)OCc1ccccc1 [Compound 1y, Benzyl(2S)-1-(7-benzyl-3,7-diazabicyclo[3.3.1]nonan-3-yl)-1-oxo-3-phenylpropan-2-yl carbamate]
- inhibition at 30 µM (human platelets [10]): 22 ± 5%
- inhibition in vivo at 30 µM, 30 µmol/kg [9]: 55%

Compound: CC(C)C[C@H](NC(=O)OCc1ccccc1)C(=O)N1CC2CC(CN(Cc3ccccc3)C2)C1 [Compound 1z, Benzyl(2S)-1-(7-benzyl-3,7-diazabicyclo[3.3.1]nonan-3-yl)-4-methyl-1-oxopentan-2-ylcarbamate]
- inhibition at 30 µM (human platelets [10]): 12 ± 10%
- inhibition in vivo at 30 µM, 30 µmol/kg [9]: 40%
